How the values were obtained:
Format in all cases: in vivo, male Wistar rats
[1] = tested on: intrinsic apoptotic pathway; experiment: Western blot of intrinsic apoptotic pathway proteins (Bax, Bcl-2, PARP, pro-caspase-3, pro-caspase-9) in livers of DEN-induced HCC rats
Description: (§1) In this study, 4 weeks old male Wistar rats were used. The rats were randomly divided into two groups; Control group (n=8) which received 1× PBS via intraperitoneal (i.p.) injection; Experimental group which were injected with DEN at 50 mg/kg b. wt. (Sigma Aldrich, USA) dissolved in PBS once a week for 16 weeks via i.p. This HCC induction protocol was modified from the protocol described by (DePeralta et al., 2016; Schiffer et al., 2005).
(§2) All drugs were orally administered with intragastric (gavage) tube. Doses and route of administration followed what was been previously reported in the literature.
(§3) For the HCC+sorafenib group, sorafenib (Carbosynth Limited) was administered at a dose of 10 mg/kg b.wt. […] A 0.3% solution of DMSO was used to dissolve the sorafenib. […] At the end of the experimental period and after a 24-hour post last drug administration, animals were euthanized using Diethyl ether and sacrificed and dissected under controlled conditions. Blood and liver tissue samples were collected and stored either at room temperature in buffered formalin for histological analysis or at −80 C in PBS for biochemical and immunoblotting analyses.
Liver tissue samples (10 mg) were homogenized in cold RIPA buffer (Sigma Aldrich, USA) 2 μl of protease inhibitor and of phosphatases inhibitor were added to the homogenizing buffer (Sigma Aldrich, USA). Protein concentration of each liver sample was determined using the Bradford method (Bio-Rad, Hercules, Calif.) with the Promega GloMax Discover. In order to blot the proteins into the gel, 2-mercaptoethanol, […], was added to the cell lysate produced from the homogenization of liver tissues. The mixture of the lysate and loading dye was then loaded into the SDS-PAGE gel. Variations of gel percentages were used according to the size of protein to be determined. Following the separation of the protein content of each sample on the SDS-PAGE gel, proteins were transferred onto a PVDF membrane and blocked in 5% BSA in TBST or a 5% (w/v) non-fat milk at room temperature for one hour. After the blocking stage, the membranes were incubated with primary anti-body overnight at 4° C. In this study, the primary antibodies selected here were anti-Proliferating Cell Nuclear Antigen (PCNA), anti-caspase-3 (Cell Signaling Technology Inc.), anti-caspase-9 (Nous Biologicals), anti-PolyADP-ribose Polymerase (PARP), anti-Bcl-2, anti-Bax (Santa Cruz). Following the overnight incubation with primary antibodies, the membranes were extensively washed with TBST and re-probed with secondary antibodies including anti-rabbit IgG (Cell Signaling Technology, Inc, MA, USA) and anti-mouse IgG, and conjugated horseradish peroxidase for 1 hour at room temperature. Protein bands were then detected using a chemiluminescence solution known as WesternSure PREMIUM, the signal was detected and visualized using the Bio-Rad ChemiDoc XRS+ System. The intensity of the band was measured using the ImageJ software. The internal control used was total protein which was stained using the SYPRO Ruby protein gel stain following the protocol instructed by the manufacturer (Thermo Fisher Scientific).
Housekeeping proteins are used as the controls for every western blot analysis. Because of their stable expression in tissues, they are great indicators to validate the integrity of the protein samples loaded into the SDS-PAGE gel, therefore accurately reflecting the amount of proteins in the samples. Current research has investigated the ability of these housekeeping proteins to remain stable under different experimental conditions. […] Therefore, an alternative approach was used to resolve this issue. Total protein was utilized as the loading control; this protocol measures the whole protein content of a sample rather than relying on one protein.

DEN-induced HCC [2] = experiment: Liver enzymes (ALT, AST) in serum of DEN-induced HCC rats, colorimetric assay
Description: as §1, §2, §3

reticulin network = experiment: Reticulin staining of liver sections in DEN-induced HCC rats; conditions: in comparison to HCC groups (FIG. 5)
Description: as §1, §2, §3

DEN-induced HCC [3] = experiment: Histopathological evaluation of liver (H&E) in DEN-induced HCC rats; conditions: HCC groups (FIG. 10)
Description: as §1, §2, §3

DEN-induced HCC [4] = experiment: Macroscopic appearance of liver and number of lesions/nodules in DEN-induced HCC rats
Description: as §1, §2, §3

PCNA = experiment: Western blot of PCNA in livers of DEN-induced HCC rats; conditions: liver, versus HCC; P<0.01 (FIG. 6)
Description: as §1, §2
For the HCC+sorafenib group, sorafenib (Carbosynth Limited) was administered at a dose of 10 mg/kg b.wt. […]
Liver tissue samples (10 mg) were homogenized in cold RIPA buffer (Sigma Aldrich, USA) 2 μl of protease inhibitor and of phosphatases inhibitor were added to the homogenizing buffer (Sigma Aldrich, USA). Protein concentration of each liver sample was determined using the Bradford method (Bio-Rad, Hercules, Calif.) with the Promega GloMax Discover. […] Variations of gel percentages were used according to the size of protein to be determined. […] Protein bands were then detected using a chemiluminescence solution known as WesternSure PREMIUM, the signal was detected and visualized using the Bio-Rad ChemiDoc XRS+ System. The intensity of the band was measured using the ImageJ software. […]

[5] = liver, compared to the HCC group alone, P<0.01 (FIG. 8)
[6] = liver, compared to the HCC group, P<0.05 (FIG. 9)

## CC(/C=C/C=C(\C)C(=O)O[C@@H]1O[C@H](CO[C@@H]2O[C@H](CO)[C@@H](O)[C@H](O)[C@H]2O)[C@@H](O)[C@H](O)[C@H]1O)=C\C=C\C=C(C)\C=C\C=C(/C)C(=O)O[C@@H]1O[C@H](CO[C@@H]2O[C@H](CO)[C@@H](O)[C@H](O)[C@H]2O)[C@@H](O)[C@H](O)[C@H]1O [crocin, Crocetin di-gentiobiose ester]
[1]; liver, compared to the HCC group alone, P<0.001 (FIG. 8)
  expression of PARP: decreased
[1]; [5]
  expression of pro-caspase-3: decreased
  expression of pro-caspase-9: decreased
[1]; [6]
  expression of anti-apoptotic protein Bcl-2: significantly (P<0.05) decreased
  expression of pro-apoptotic protein Bax: increasing the expression
[1]; western blot analysis (FIGS. 7, 8, 9)
  activation of the intrinsic apoptotic pathway: triggered the activation of the intrinsic apoptotic pathway
DEN-induced HCC [2]; in comparison to DEN-induced HCC rats (FIG. 11)
  levels of ALT and AST in the blood: great impact on lowering the levels of both ALT and AST
DEN-induced HCC [2]; in comparison to the HCC group, crocin 200 mg/kg b.wt., sorafenib 10 mg/kg b.wt., oral gavage 5 times a week, week 17 to 19, P<0.01
  level of ALT in serum: decrease in the level of ALT
DEN-induced HCC [2]; in comparison to the sorafenib alone group (HCC+sorafenib), P<0.05
  level of ALT in serum: significantly decreased levels of ALT
Reticulin network
  reticulin network / fiber breakage: recovered the damage done by the DEN-induction of cancer
DEN-induced HCC [3]
  architecture of the liver (H&E histology): restored to a great degree the normal architecture of the liver
DEN-induced HCC [4]; in comparison to the HCC animals (FIG. 4)
  number of liver lesions: reduced the number of lesions
DEN-induced HCC [4]; in comparison to the livers of sorafenib alone (HCC+SB) (FIG. 4)
  number of liver lesions: significantly lower numbers of lesions
PCNA
  expression of PCNA: significantly lowered the expression of PCNA

Reference: US10933076B2, “Crocin-sorafenib combination therapy for liver cancer” (United Arab Emirates University, priority 2019, dated 2021)
